Experimental data reported in ChEMBL document CHEMBL1129012, “Similarities and differences in the DNA binding/cleaving specificities and mechanisms of [SalenMn(III)]+ and [TMPPMn(III)]5+” (Bioorg Med Chem Lett, 1996).
Calls of active or inactive are those of the source. The rule behind the calls is not given here.

System: Nucleic Acid
Test: DNA binding/cleaving affinity was determined; Active
Assay type: nucleic-acid assay

## Complex of [SalenMn(III)]+ (Salen=N,N'-ethylenebis(salicylideneaminato))
  Activity: Active

## [TMPPMn(III)] 5+ (TMPP=meso-tetrakis(4-N-methylpyridiniumyl)porphyrinato))
  Activity: Active
